Experimental data as given in patent US20260022116A1, “IMIDAZOPYRIDINE COMPOUNDS, PREPARATION THEREOF AND THERAPEUTIC USES THEREOF” (SANOFI, priority 2022, published 2026).
Where a name gives a salt, the structure may show the parent alone.

Molecular target: T1, ERK5 (Homo sapiens, UniProt Q13164)
Assay: cell-based
Target sequence in this assay (Q13164 whole entry): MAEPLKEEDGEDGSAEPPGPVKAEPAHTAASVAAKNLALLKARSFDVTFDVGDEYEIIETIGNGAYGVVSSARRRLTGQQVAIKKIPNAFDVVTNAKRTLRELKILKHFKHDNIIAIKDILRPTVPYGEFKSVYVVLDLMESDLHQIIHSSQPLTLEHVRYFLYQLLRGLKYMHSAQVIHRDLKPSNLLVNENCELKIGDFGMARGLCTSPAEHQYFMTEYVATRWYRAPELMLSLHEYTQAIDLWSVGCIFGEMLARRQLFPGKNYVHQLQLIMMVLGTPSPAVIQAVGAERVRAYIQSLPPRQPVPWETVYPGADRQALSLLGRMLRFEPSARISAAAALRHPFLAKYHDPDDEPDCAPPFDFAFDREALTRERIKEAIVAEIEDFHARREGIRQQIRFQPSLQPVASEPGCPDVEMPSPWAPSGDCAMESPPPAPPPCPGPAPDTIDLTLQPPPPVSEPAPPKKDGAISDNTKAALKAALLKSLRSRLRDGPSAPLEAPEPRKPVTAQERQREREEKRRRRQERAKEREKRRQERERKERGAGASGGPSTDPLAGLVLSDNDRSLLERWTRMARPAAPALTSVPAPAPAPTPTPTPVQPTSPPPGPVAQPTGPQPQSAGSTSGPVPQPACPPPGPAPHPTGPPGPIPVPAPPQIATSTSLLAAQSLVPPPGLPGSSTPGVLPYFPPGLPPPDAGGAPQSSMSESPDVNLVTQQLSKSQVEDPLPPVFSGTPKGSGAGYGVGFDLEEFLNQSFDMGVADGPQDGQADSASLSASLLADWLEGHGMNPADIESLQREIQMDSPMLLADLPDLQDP
Method: (§1) Two assays were performed to assess the ERK5 inhibitory activity of compounds of the Examples, a cell-based assay and a cell-free biochemical assay.
The renal cancer cell line SN12C was transduced by a lentivirus pGreenFire1 MEF2 EF1 Neo (ref TR030VA-N) from SBI using standard infection protocol. pGreenFire1 MEF2 EF1 Neo allows the expression of luciferase gene under the control of minimal promoter with MEF2 transcriptional response elements. Cells harboring the reporter construct were selected by geneticin treatment. The selected cells were then transposed by a piggyback based plasmid pCM4007 allowing the expression of constitutively activated MEK5DD under control of TREG3 promoter, a doxycycline regulated promoter. Transposed cells were selected by puromycin treatment. Upon doxycycline treatment (1 μg/ml) MEK5DD was expressed. MEK5DD activates ERK5 that phosphorylates MEF2C protein. Activated MEF2C protein can bind to its transcriptional response elements. Then the luciferase is expressed. In a 96-well plate (96F nuncleon ref137101 thermofisher), 50,000 cells were inoculated in 142.5 μl of RPMI medium containing 10% fetal calf serum, 1% glutamine, and 1 μg/ml doxycycline. […] The luciferase activity was measured using the Kit Bright Glo Luminescent Cell Assay Cat E2610 (Promega) according to the manufacturer's protocol. Luminescence was determined using 0.2 second reading/well using a Tecan SPARK. IC50 values were calculated using XLFIT5 for Microsoft Excel using method 205.

SMILES	IC50
O=C(c1cccc(N2CCCS2(=O)=O)c1)N1CCC(c2ccnc3[nH]c(C4CCOCC4)nc23)CC1 [Example 85, [3-(1,1-dioxo-1,2-thiazolidin-2-yl)phenyl]-[4-(2-tetrahydropyran-4-yl-3H-imidazo[4,5-b]pyridin-7-yl)-1-piperidyl]methanone]	> 10 µM
CC(Oc1ccc(C(F)(F)F)cc1Cl)C(=O)N1CCC(c2ccnc3[nH]c(C4CCOCC4)nc23)CC1 (centres unmarked) [Example 87, 2-[2-chloro-4-(trifluoromethyl)phenoxy]-1-[4-(2-tetrahydropyran-4-yl-3H-imidazo[4,5-b]pyridin-7-yl)-1-piperidyl]propan-1-one]	> 10 µM
Cc1cc2ncc(C(=O)N3CCC(c4ccnc5[nH]c(C6CCOCC6)nc45)CC3)c(N)n2n1 [Example 109, (7-amino-2-methyl-pyrazolo[1,5-a]pyrimidin-6-yl)-[4-(2-tetrahydropyran-4-yl-3H-imidazo[4,5-b]pyridin-7-yl)-1-piperidyl]methanone]	7.94 µM
O=C(c1n[nH]c2ccccc12)N1CCC(c2ccnc3[nH]c(C4CCOCC4)nc23)CC1 [Example 78, 1H-indazol-3-yl-[4-(2-tetrahydropyran-4-yl-3H-imidazo[4,5-b]pyridin-7-yl)-1-piperidyl]methanone]	3.6 µM
Nc1cc(OC(F)(F)F)ccc1C(=O)N1CCC(c2ccnc3[nH]c(C4CNCC(F)(F)C4)nc23)CC1 (single isomer, unassigned) [Example 162, [2-amino-4-(trifluoromethoxy)phenyl]-[4-[2-[5,5-difluoro-3-piperidyl]-3H-imidazo[4,5-b]pyridin-7-yl]-1-piperidyl]methanone]	0.261 µM
CCn1c(=O)c(=O)[nH]c2cc(-c3nc4c(C5CCN(C(=O)c6ccc(OC(F)(F)F)cc6)CC5)ccnc4[nH]3)ccc21 [Example 139, 1-ethyl-3-hydroxy-6-[7-[1-[4-(trifluoromethoxy)benzoyl]-4-piperidyl]-3H-imidazo[4,5-b]pyridin-2-yl]quinoxalin-2-one]	3.27 µM
O=C(c1ccc(OC(F)(F)F)cc1)N1CCC(c2ccnc3[nH]c(-c4cnc5ccc(C(F)(F)F)cc5c4O)nc23)CC1 [Example 230, [4-[2-[4-hydroxy-6-(trifluoromethyl)-3-quinolyl]-3H-imidazo[4,5-b]pyridin-7-yl]-1-piperidyl]-[4-(trifluoromethoxy)phenyl]methanone]	6.48 µM
Nc1c(C(=O)N2CCC(c3ccnc4[nH]c(C5CCOCC5)nc34)CC2)sc(C(F)(F)F)c1-c1ccccc1 [Example 92, [3-amino-4-phenyl-5-(trifluoromethyl)-2-thienyl]-[4-(2-tetrahydropyran-4-yl-3H-imidazo[4,5-b]pyridin-7-yl)-1-piperidyl]methanone]	2.25 µM
Nc1cc(OC(F)(F)F)ccc1C(=O)N1CCC(c2ccnc3[nH]c(C4CCOC4)nc23)CC1 (single isomer, unassigned) [Example 186, [2-amino-4-(trifluoromethoxy)phenyl]-[4-[2-[tetrahydrofuran-3-yl]-3H-imidazo[4,5-b]pyridin-7-yl]-1-piperidyl]methanone]	0.027 µM

Now from value to molecule:

IC50	SMILES
3.16 µM	O=C(c1nn(-c2ccccc2C(F)(F)F)cc1O)N1CCC(c2ccnc3[nH]c(C4CCOCC4)nc23)CC1 [Example 89, [4-hydroxy-1-[2-(trifluoromethyl)phenyl]pyrazol-3-yl]-[4-(2-tetrahydropyran-4-yl-3H-imidazo[4,5-b]pyridin-7-yl)-1-piperidyl]methanone]
> 10 µM	CCn1cc(N)c(C(=O)N2CCC(c3ccnc4[nH]c(C5CCOCC5)nc34)CC2)n1 [Example 115, (4-amino-1-ethyl-pyrazol-3-yl)-[4-(2-tetrahydropyran-4-yl-3H-imidazo[4,5-b]pyridin-7-yl)-1-piperidyl]methanone]
7.89 µM	O=C(c1cnn2c1NCCC2C(F)(F)F)N1CCC(c2ccnc3[nH]c(C4CCOCC4)nc23)CC1 (centres unmarked) [Example 79, [4-(2-tetrahydropyran-4-yl-3H-imidazo[4,5-b]pyridin-7-yl)-1-piperidyl]-[7-(trifluoromethyl)-4,5,6,7-tetrahydropyrazolo[1,5-a]pyrimidin-3-yl]methanone]
> 10 µM	O=C1CC(C(=O)N2CCC(c3ccnc4[nH]c(C5CCOCC5)nc34)CC2)CN1Cc1ccccc1Cl (centres unmarked) [Example 110, 1-[(2-chlorophenyl)methyl]-4-[4-(2-tetrahydropyran-4-yl-3H-imidazo[4,5-b]pyridin-7-yl)piperidine-1-carbonyl]pyrrolidin-2-one]
> 10 µM	O=C(C1CC(=O)N(c2ccc(F)cc2)C1)N1CCC(c2ccnc3[nH]c(C4CCOCC4)nc23)CC1 (centres unmarked) [Example 111, 1-(4-fluorophenyl)-4-[4-(2-tetrahydropyran-4-yl-3H-imidazo[4,5-b]pyridin-7-yl)piperidine-1-carbonyl]pyrrolidin-2-one]
> 10 µM	O=S(=O)(c1ccc(OC(F)(F)F)cc1)N1CCC(c2ccnc3[nH]c(C4CCOCC4)nc23)CC1 [Example 165, 2-tetrahydropyran-4-yl-7-[1-[4-(trifluoromethoxy)phenyl]sulfonyl-4-piperidyl]-3H-imidazo[4,5-b]pyridine]
> 10 µM	COC12CC(C(=O)N3CCC(c4ccnc5[nH]c(C6CCOCC6)nc45)CC3)(C1)C2 [Example 58, (3-Methoxy-1-bicyclo[1.1.1]pentanyl)-[4-(2-tetrahydropyran-4-yl-3H-imidazo[4,5-b]pyridin-7-yl)-1-piperidyl]methanone]
0.979 µM	CC(C)(C)OC(=O)Nc1cc(OC(F)(F)F)ccc1C(=O)N1CCC(c2ccnc3[nH]c(C4CCOCC4)nc23)CC1 [Example 190, tert-butyl N-[2-[4-(2-tetrahydropyran-4-yl-3H-imidazo[4,5-b]pyridin-7-yl)piperidine-1-carbonyl]-5-(trifluoromethoxy)phenyl]carbamate]
0.195 µM	CO[C@H]1CC[C@H](c2nc3c(C4CCN(C(=O)c5ccc(OC(F)(F)F)cc5)CC4)ccnc3[nH]2)CC1 [Example 153, (trans)-[4-(trifluoromethoxy)phenyl]-[4-[2-(4-methoxycyclohexyl)-3H-imidazo[4,5-b]pyridin-7-yl]-1-piperidyl]methanone;hydrochloride]
> 10 µM	O=C(C1CC(=O)N(c2ccc(F)c(F)c2)C1)N1CCC(c2ccnc3[nH]c(C4CCOCC4)nc23)CC1 (centres unmarked) [Example 107, 1-(3,4-difluorophenyl)-4-[4-(2-tetrahydropyran-4-yl-3H-imidazo[4,5-b]pyridin-7-yl)piperidine-1-carbonyl]pyrrolidin-2-one]
> 10 µM	O=C(C1CC12C(=O)Nc1ccccc12)N1CCC(c2ccnc3[nH]c(C4CCOCC4)nc23)CC1 (centres unmarked) [Example 117, 2-[4-(2-tetrahydropyran-4-yl-3H-imidazo[4,5-b]pyridin-7-yl)piperidine-1-carbonyl]spiro[cyclopropane-1,3′-indoline]-2′-one]
> 10 µM	O=C(c1ccc(OC(F)(F)F)cc1)N1CCC(c2ccnc3[nH]c(-c4csc(-c5cc(Cl)ccc5O)n4)nc23)CC1 [Example 135, [4-[2-[2-(5-chloro-2-hydroxy-phenyl)thiazol-4-yl]-3H-imidazo[4,5-b]pyridin-7-yl]-1-piperidyl]-[4-(trifluoromethoxy)phenyl]methanone]
0.041 µM	Nc1cc(OC(F)(F)F)ccc1C(=O)N1CCC(c2ccnc3[nH]c(C4CCOC4)nc23)CC1 (single isomer, unassigned) [Example 187, [2-amino-4-(trifluoromethoxy)phenyl]-[4-[2-[tetrahydrofuran-3-yl]-3H-imidazo[4,5-b]pyridin-7-yl]-1-piperidyl]methanone]

Molecular target: T1, ERK5
Assay: biochemical
Target sequence in this assay (Q13164 55-347 limits assumed): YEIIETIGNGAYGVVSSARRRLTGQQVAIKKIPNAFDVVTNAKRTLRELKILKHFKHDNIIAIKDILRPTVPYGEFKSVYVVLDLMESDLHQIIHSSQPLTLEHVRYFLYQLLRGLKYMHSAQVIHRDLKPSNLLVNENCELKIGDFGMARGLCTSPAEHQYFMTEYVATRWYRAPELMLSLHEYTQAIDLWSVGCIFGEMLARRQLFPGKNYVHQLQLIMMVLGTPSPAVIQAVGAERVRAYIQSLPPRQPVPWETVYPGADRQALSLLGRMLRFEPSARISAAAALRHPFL
Method: as §1
An assay was performed to measure the capacity of each compound to inhibit ERK5 enzymatic activity. Compound potency was evaluated by Time-Resolved Forster Resonance Energy Transfer (FRET system). […] A mixture of 1 mM ATP and 1 μM biotinylated synthetic peptide was added (Biosyntan GmbH). This synthetic peptide represents amino acids 30-52 of Eukaryotic translation initiation factor 4E-binding protein 1 (see, e.g., the sequence under accession No. NP_004086.1) biotinylated at the N-terminus.

SMILES	IC50
O=C(c1ccc(S(F)(F)(F)(F)F)cc1)N1CCC(c2c(F)cnc3[nH]c(C4CN(C(=O)O)C5COCC5O4)nc23)CC1 (racemic) [Example 455, (rac)-2-[6-fluoro-7-[1-[4-(pentafluoro-λ^6-sulfanyl)benzoyl]-4-piperidyl]-3H-imidazo[4,5-b]pyridin-2-yl]-2,3,4a,5,7,7a-hexahydrofuro[3,4-b][1,4]oxazine-4-carboxylic acid]	6.46 µM
O=C(c1ccc(S(F)(F)(F)(F)F)cc1)N1CCC(c2c(F)cnc3[nH]c([C@H]4C[C@@H](O)C4)nc23)CC1 [Example 446, (cis)-[4-[6-fluoro-2-(3-hydroxycyclobutyl)-3H-imidazo[4,5-b]pyridin-7-yl]-1-piperidyl]-[4-(pentafluoro-λ^6-sulfanyl)phenyl]methanone]	0.487 µM
Nc1cc(S(F)(F)(F)(F)F)ccc1C(=O)N1CCC(c2c(F)cnc3[nH]c(C4CCCO4)nc23)CC1 (racemic) [Example 383, (rac)-[2-amino-4-(pentafluoro-λ^6-sulfanyl)phenyl]-[4-(6-fluoro-2-tetrahydrofuran-2-yl-3H-imidazo[4,5-b]pyridin-7-yl)-1-piperidyl]methanone]	0.385 µM
O=C(c1ccc(S(F)(F)(F)(F)F)cc1)N1CCC(c2c(F)cnc3[nH]c([C@H]4C[C@H](O)C4)nc23)CC1 [Example 448, (trans)-[4-[6-fluoro-2-(3-hydroxycyclobutyl)-3H-imidazo[4,5-b]pyridin-7-yl]-1-piperidyl]-[4-(pentafluoro-λ^6-sulfanyl)phenyl]methanone]	0.175 µM

Second part, the molecule after the results:

IC50	SMILES
0.535 µM	O=C(c1ccc(S(F)(F)(F)(F)F)cc1)N1CCC(c2c(F)cnc3[nH]c(C4CCN(C5CC5)CC4)nc23)CC1 [Example 431, [4-[2-(1-cyclopropyl-4-piperidyl)-6-fluoro-3H-imidazo[4,5-b]pyridin-7-yl]-1-piperidyl]-[4-(pentafluoro-λ^6-sulfanyl)phenyl]methanone]
0.244 µM	O=C(c1ccc(OC(F)(F)F)cc1)N1CCC(c2c(F)cnc3[nH]c(C4CCC5(COC5)N(C(=O)O)C4)nc23)CC1 (racemic) [Example 461, (rac)-7-[6-fluoro-7-[1-[4-(trifluoromethoxy)benzoyl]-4-piperidyl]-3H-imidazo[4,5-b]pyridin-2-yl]-2-oxa-5-azaspiro[3.5]nonane-5-carboxylic acid]
10.5 µM	O=C(c1ccc(S(F)(F)(F)(F)F)cc1)N1CCC(c2c(F)cnc3[nH]c([C@H]4CC[C@@](O)(C(F)(F)F)CC4)nc23)CC1 [Example 450, (trans)-[4-[6-fluoro-2-[4-hydroxy-4-(trifluoromethyl)cyclohexyl]-3H-imidazo[4,5-b]pyridin-7-yl]-1-piperidyl]-[4-(pentafluoro-λ^6-sulfanyl)phenyl]methanone]
